The subject of this experiment is HEK293T cells carrying the ATF4 luciferase reporter. Kind of experiment: ATF4-Luc assay (in vitro model of VWMD). The format is cell-based, human. The note with it: Homo sapiens, HEK-293T, 1 μg/mL tunicamycin, 7 hours, One Glo luminescence. The method, boiled down: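 Stable HEK293T line expressing firefly luciferase behind the human ATF4 5′-UTR, treated with 1 μg/mL tunicamycin plus compound for 7 hours. Luminescence read with One Glo; EC50 determined.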

From patent publication US20200347043A1, “MODULATORS OF THE INTEGRATED STRESS PATHWAY” (Calico Life Sciences LLC, priority 2019, published 2020) come the findings set out here.

As usually defined, the EC50 is the concentration that produces a half-maximal response.

Consider `O=C(NC12CC(c3csc(-c4ccc(Cl)cc4)n3)(C1)C2)[C@@H]1C[C@@H](O)c2cc(Cl)ccc2O1` [Compound 273, (2S,4R)-6-chloro-N-{3-[2-(4-chlorophenyl)-1,3-thiazol-4-yl]bicyclo[11.11]pentan-1-yl}-4-hydroxy-3,4-dihydro-2H-1-benzopyran-2-carboxamide], for which the EC50 fell in the range of 50 to 250 nM.

Take `O=C(N[C@H]1CC[C@H](N2CCN(C3CC(OC(F)(F)F)C3)C2=O)CC1)[C@H]1C[C@@H](O)c2cc(Cl)ccc2O1` (some centres unmarked) [Compound 197]: the EC50 was more than 2000 nM.

For the molecule `O=C(NC12CC(c3cnn(-c4ccc(Cl)cc4)c3)(C1)C2)[C@H]1C[C@@H](O)c2cc(Cl)ccc2O1` [Compound 264, (2R,4R)-6-chloro-N-{3-[1-(4-chlorophenyl)-1H-pyrazol-4-yl]bicyclo[1.1.1]pentan-1-yl}-4-hydroxy-3,4-dihydro-2H-1-benzopyran-2-carboxamide], the EC50 was less than 10 nM.

Take `O=C(NC12CC(N3CC([C@H]4C[C@@H](OC(F)(F)F)C4)OC3=O)(C1)C2)[C@@H]1C[C@@H](O)c2cc(Cl)ccc2O1` (stereo partly drawn) [Compound 269, (2S,4R)-6-chloro-4-hydroxy-N-(3-{2-oxo-5-[cis-3-(trifluoromethoxy)cyclobutyl]-1,3-oxazolidin-3-yl}bicyclo[1.1.1]pentan-1-yl)-3,4-dihydro-2H-1-benzopyran-2-carboxamide]: the EC50 was in the range of 250 to 500 nM.

With `O=C(NC12CC(c3cn([C@H]4C[C@@H](OC(F)(F)F)C4)cn3)(C1)C2)[C@H]1C[C@@H](O)c2cc(Cl)ccc2O1` [Compound 294, (2R,4R)-6-chloro-4-hydroxy-N-(3-{1-[cis-3-(trifluoromethoxy)cyclobutyl]-1H-imidazol-4-yl}bicyclo[1.1.1]pentan-1-yl)-3,4-dihydro-2H-1-benzopyran-2-carboxamide], the EC50 was in the range of 10 to 50 nM.

In the case of `O=C(CO[C@H]1C[C@@H](OC(F)(F)F)C1)NC12CC(NC(=O)[C@H]3C[C@@H](O)c4cc(Cl)ccc4O3)(C1)C2` [Compound 164, (2R,4R)-6-chloro-4-hydroxy-N-[3-(2-{[cis-3-(trifluoromethoxy)cyclobutyl]oxy}acetamido)bicyclo[1.1.1]pentan-1-yl]-3,4-dihydro-2H-1-benzopyran-2-carboxamide], the EC50 was less than 10 nM.

In the case of `O=C(N[C@H]1CC[C@H](N2CCN(c3ccc(Cl)c(F)c3)C2=O)CC1)[C@H]1C[C@@H](O)c2cc(Cl)ccc2O1` [Compound 207, (2R,4R)-6-chloro-N-{trans-4-[3-(4-chloro-3-fluorophenyl)-2-oxoimidazolidin-1-yl]cyclohexyl}-4-hydroxy-3,4-dihydro-2H-1-benzopyran-2-carboxamide], the EC50 was less than 10 nM.

Take `O=C(NC12CC(N3CC(c4ccc(Cl)cc4)CC3=O)(C1)C2)[C@H]1C[C@@H](O)c2cc(Cl)ccc2O1` (stereo partly drawn) [Compound 307, (2R,4R)-6-chloro-N-{3-[4-(4-chlorophenyl)-2-oxopyrrolidin-1-yl]bicyclo[1.1.1]pentan-1-yl}-4-hydroxy-3,4-dihydro-2H-1-benzopyran-2-carboxamide]: the concentration for a half-maximal effect (EC50) is less than 10 nM.

On to `O=C(NC12CC(c3ccn([C@H]4C[C@@H](OC(F)(F)F)C4)n3)(C1)C2)[C@H]1C[C@@H](O)c2cc(Cl)ccc2O1` [Compound 298, (2R,4R)-6-chloro-4-hydroxy-N-(3-{1-[cis-3-(trifluoromethoxy)cyclobutyl]-1H-pyrazol-3-yl}bicyclo[1.1.1]pentan-1-yl)-3,4-dihydro-2H-1-benzopyran-2-carboxamide], for which the EC50 was in the range of 50 to 250 nM.

For the molecule `O=C(NC12CC(n3cnc(-c4ccc(C(F)(F)F)nc4)c3)(C1)C2)[C@@H]1C[C@H](O)c2cc(Cl)ccc2O1` (single isomer, unassigned) [Compound 200], the EC50 lay within 50 to 250 nM.

Take `O=C(N[C@H]1CC[C@H](C(=O)N2CC(c3ccc(Cl)cc3)C2)CC1)[C@@H]1C[C@@H](O)c2cc(Cl)ccc2O1` [Compound 178]: the EC50 is 10 to 50 nM.

Consider `O=C(NC12CC(c3nc([C@H]4C[C@@H](OC(F)(F)F)C4)no3)(C1)C2)[C@H]1C[C@@H](O)c2cc(Cl)ccc2O1` [Compound 229, (2R,4R)-6-chloro-4-hydroxy-N-(3-{3-[cis-3-(trifluoromethoxy)cyclobutyl]-1,2,4-oxadiazol-5-yl}bicyclo[1.1.1]pentan-1-yl)-3,4-dihydro-2H-1-benzopyran-2-carboxamide], for which the EC50 lay within 10 to 50 nM.

For `O=C(NC12CC(n3ccc(-c4ccc(Cl)c(F)c4)c3)(C1)C2)[C@@H]1C[C@@H](O)c2cc(Cl)ccc2O1` [Compound 243, (2S,4R)-6-chloro-N-{3-[3-(4-chloro-3-fluorophenyl)-1H-pyrrol-1-yl]bicyclo[1.1.1]pentan-1-yl}-4-hydroxy-3,4-dihydro-2H-1-benzopyran-2-carboxamide], the EC50 lay in the range of 50 to 250 nM.

As to `Cc1nc(C23CC(NC(=O)[C@@H]4C[C@@H](O)c5cc(Cl)ccc5O4)(C2)C3)oc1-c1ccc(Cl)cc1` [Compound 275, (2S,4R)-6-chloro-N-{3-[5-(4-chlorophenyl)-4-methyl-1,3-oxazol-2-yl]bicyclo[1.1.1]pentan-1-yl}-4-hydroxy-3,4-dihydro-2H-1-benzopyran-2-carboxamide], the EC50 lay within 50 to 250 nM.

Turning to `O=C1C[C@H](C(=O)NC23CC(c4nnc(COc5ccc(Cl)c(F)c5)o4)(C2)C3)Oc2ccc(Cl)cc21` [Compound 108, (2R)-6-chloro-N-(3-{5-[(4-chloro-3-fluorophenoxy)methyl]-1,3,4-oxadiazol-2-yl}bicyclo[1.1.1]pentan-1-yl)-4-oxo-3,4-dihydro-2H-1-benzopyran-2-carboxamide], the EC50 is less than 10 nM.

Take `O=C1C[C@H](C(=O)NC23CC(c4nc(COc5ccc(Cl)c(F)c5)no4)(C2)C3)Oc2ccc(Cl)cc21` [Compound 155, (2R)-6-chloro-N-(3-{3-[(4-chloro-3-fluorophenoxy)methyl]-1,2,4-oxadiazol-5-yl}bicyclo[1.1.1]pentan-1-yl)-4-oxo-3,4-dihydro-2H-1-benzopyran-2-carboxamide]: the EC50 fell in the range of 10 to 50 nM.

On to `O=C(COc1ccc(Cl)c(F)c1)N[C@H]1CC[C@H](NC(=O)C2CC(=O)c3cc(Cl)ccc3O2)CC1` (some centres unmarked) [Compound 130, 6-chloro-N-{(1r,4r)-4-[2-(4-chloro-3-fluorophenoxy)acetamido]cyclohexyl}-4-oxo-3,4-dihydro-2H-1-benzopyran-2-carboxamide], for which the EC50 was in the range of 250 to 500 nM.

Consider `O=C(NC12CC(N3CC(c4ccc(Cl)cc4)OC3=O)(C1)C2)[C@H]1C[C@@H](O)c2cc(Cl)ccc2O1` (stereo partly drawn) [Compound 277, (2R,4R)-6-chloro-N-{3-[5-(4-chlorophenyl)-2-oxo-1,3-oxazolidin-3-yl]bicyclo[1.1.1]pentan-1-yl}-4-hydroxy-3,4-dihydro-2H-1-benzopyran-2-carboxamide], for which the EC50 was in the range of 50 to 250 nM.

On to `O=C1C[C@H](C(=O)NC23CCC(C(=O)N[C@H]4C[C@@H](OC(F)(F)F)C4)(CC2)CC3)Oc2ccc(Cl)cc21` [Compound 221, (2R)-6-chloro-4-oxo-N-(4-{[cis-3-(trifluoromethoxy)cyclobutyl]carbamoyl}bicyclo[2.2.2]octan-1-yl)-3,4-dihydro-2H-1-benzopyran-2-carboxamide], for which the EC50 was in the range of 50 to 250 nM.

Regarding `O=C(NC12CC(N3CCN(c4ccc(Cl)cc4)C3=O)(C1)C2)[C@H]1C[C@@H](O)c2cc(Cl)ccc2O1` [Compound 183, (2R,4R)-6-chloro-N-{3-[3-(4-chlorophenyl)-2-oxoimidazolidin-1-yl]bicyclo[1.1.1]pentan-1-yl}-4-hydroxy-3,4-dihydro-2H-1-benzopyran-2-carboxamide], the EC50 was 10 to 50 nM.
